Measurements published in US6160004A, “C-10 carbon-substituted artemisinin-like trioxane compounds having antimalarial, antiproliferative and antitumor activities” (priority 1998, dated 2000).

Columns and labels:
SN12C = test: NCI 60 cell line panel screening assay (SRB), SN12C; format: cell-based; conditions: Homo sapiens, 48 h, read-out: Log10 TGI
NCI-H522 = test: cells; format: cell-based; conditions: Homo sapiens; NCI-H522, non-small cell lung cancer, 48 h; read-out: Log10 TGI (converted)
UACC-257 = test: cells; format: cell-based; conditions: Homo sapiens, UACC-257, 48 h; read-out: Log10 TGI (converted)
HCT-116 = test: cells; format: cell-based; conditions: Homo sapiens, HCT-116, 48 h
U251 = test: cells; format: cell-based; conditions: Homo sapiens, U-251; U251, CNS cancer, 48 h; read-out: Log10 TGI (converted)
OVCAR-4 = test: cells; format: cell-based; conditions: Homo sapiens, OVCAR-4, 48 h
NCI-H460 = test: cells; format: cell-based; conditions: Homo sapiens, NCI-H460, non-small cell lung cancer, 48 h
60 cell line panel = test: NCI 60 cell line panel, whole panel; conditions: panel
BT-549 = test: cells; format: cell-based; conditions: Homo sapiens, BT-549, breast cancer, 48 h
M14 = test: NCI 60 cell line panel screening assay (SRB), M14; conditions: Homo sapiens, M14, 48 h, read-out: Log10 TGI
KM12 = test: cells; format: cell-based; conditions: Homo sapiens; KM12, colon cancer, 48 h; read-out: Log10 TGI
MOLT-4 [1] = test: cells; conditions: Homo sapiens, MOLT-4, 48 h
SR = test: cells; format: cell-based; conditions: Homo sapiens, leukemia, 48 h, read-out: Log10 TGI
SW-620 = test: NCI 60 cell line panel screening assay (SRB), SW-620; format: cell-based; conditions: Homo sapiens; SW-620, colon cancer, 48 h; read-out: Log10 TGI
HT29 = test: cells; format: cell-based; conditions: Homo sapiens, HT-29; HT29, colon cancer, 48 h; read-out: Log10 GI50 (converted)
PC-3 = test: cells; format: cell-based; conditions: Homo sapiens; PC-3, prostate cancer, 48 h; read-out: Log10 TGI
RPMI-8226 = test: NCI 60 cell line panel screening assay (SRB), RPMI-8226; format: cell-based; conditions: Homo sapiens, RPMI-8226, leukemia, 48 h
OVCAR-5 = test: cells; format: cell-based; conditions: Homo sapiens; OVCAR-5, ovarian cancer, 48 h; read-out: Log10 TGI (converted)
SNB-19 = test: cells; format: cell-based; conditions: Homo sapiens; SNB-19, CNS cancer, 48 h; read-out: Log10 TGI
HOP-62 = test: cells; format: cell-based; conditions: Homo sapiens; HOP-62, non-small cell lung cancer, 48 h; read-out: Log10 TGI (converted)
DU-145 = test: cells; format: cell-based; conditions: Homo sapiens, DU-145, 48 h; read-out: Log10 TGI
LOX IMVI = test: cells; format: cell-based; conditions: Homo sapiens, melanoma, 48 h, read-out: Log10 TGI (converted)
MDA-MB435 = test: NCI 60 cell line panel screening assay (SRB), MDA-MB435; format: cell-based; conditions: Homo sapiens, MDA-MB-435; printed MDA-MBA35, breast cancer, 48 h; read-out: Log10 GI50 (converted)
MALME-3M = test: cells; format: cell-based; conditions: Homo sapiens, Malme-3M, 48 h, read-out: Log10 TGI
HCT-15 = test: cells; format: cell-based; conditions: Homo sapiens, HCT-15, colon cancer, 48 h
CCRF-CEM = test: cells; format: cell-based; conditions: Homo sapiens, leukemia, 48 h, read-out: Log10 TGI
MDA-MB231/ATCC = test: cells; format: cell-based; conditions: Homo sapiens, MDA-MB-231, breast cancer, 48 h, read-out: Log10 TGI (converted)
MCF7/ADR-RES = test: cells; format: cell-based; conditions: Homo sapiens; MCF7/ADR-RES, breast cancer, 48 h; read-out: Log10 TGI
OVCAR-3 = test: cells; format: cell-based; conditions: Homo sapiens; OVCAR-3, ovarian cancer, 48 h; read-out: Log10 TGI (converted)
OVCAR-8 = test: cells; format: cell-based; conditions: Homo sapiens; OVCAR-8, ovarian cancer, 48 h; read-out: Log10 GI50 (converted)
T-47D = test: NCI 60 cell line panel screening assay (SRB), T-47D; conditions: Homo sapiens, T47D, 48 h, read-out: Log10 GI50 (converted)
IGROVI = test: NCI 60 cell line panel screening assay (SRB), IGROVI; format: cell-based; conditions: 48 h, read-out: Log10 TGI
786-0 = test: cells; format: cell-based; conditions: Homo sapiens; 786-0, renal cancer, 48 h; read-out: Log10 TGI
MOLT-4 [2] = conditions: MOLT-4, FIG. 6
K-562 = test: cells; format: cell-based; conditions: Homo sapiens, K562; K-562, leukemia, 48 h; read-out: Log10 TGI (converted)
HL-60(TB) = test: cells; format: cell-based; conditions: Homo sapiens, HL-60, 48 h, read-out: Log10 TGI
NCI-H322M = test: cells; conditions: Homo sapiens, 48 h, read-out: Log10 TGI
MDA-N = test: NCI 60 cell line panel screening assay (SRB), MDA-N; format: cell-based; conditions: Homo sapiens, breast cancer, 48 h, read-out: Log10 GI50 (converted)
[3] = rat liver microsomes; cited from earlier work
PE cells = test: Viability by trypan blue exclusion; format: cell-based, murine (SENCAR mice); conditions: 96 hours
[4] = cited from earlier work
[5] = read-out: Log10 GI50 (converted)
[6] = read-out: Log10 TGI (converted)

CC(=O)O[C@H]1C(=O)[C@@]2(C)[C@H]([C@H](OC(=O)c3ccccc3)[C@]3(O)C[C@H](OC(=O)[C@H](O)[C@@H](NC(=O)c4ccccc4)c4ccccc4)C(C)=C1C3(C)C)[C@]1(OC(C)=O)CO[C@@H]1C[C@@H]2O [Paclitaxel, reference compound]
IC (TGI) (SN12C): 51.3 µM
IC (TGI) (NCI-H522): 6.31 pM
IC (TGI) (UACC-257): 30.2 µM
GI50 (HCT-116; [5]): < 0.1 pM
IC (TGI) (HCT-116; [6]): 15.1 µM
IC (TGI) (U251): 47.9 µM
GI50 (OVCAR-4; [5]): 10 µM
IC (TGI) (OVCAR-4; read-out: Log10 TGI): 64.6 µM
GI50 (NCI-H460; [5]): < 0.1 pM
IC (TGI) (NCI-H460; [6]): 12 µM
Delta of Log10 LC50 (60 cell line panel): -4.06
Delta of Log10 TGI (60 cell line panel): -4.54
Range of Log10 TGI (60 cell line panel): 7.20
GI50 (BT-549; [5]): 0.00049 µM
IC (TGI) (BT-549; [6]): 0.479 µM
IC (TGI) (M14): 24 µM
IC (TGI) (KM12): 43.7 µM
CC50 (MOLT-4 [1]; read-out: Log10 LC50 (converted)): > 100 µM
IC (TGI) (MOLT-4 [1]; read-out: Log10 TGI): > 100 µM
IC (TGI) (SR): > 100 µM
IC (TGI) (SW-620): > 100 µM
GI50 (HT29): < 0.1 pM
IC (TGI) (PC-3): > 100 µM
GI50 (RPMI-8226; [5]): < 0.1 pM
IC (TGI) (RPMI-8226; read-out: Log10 TGI): > 100 µM
IC (TGI) (OVCAR-5): 12 µM
IC (TGI) (SNB-19): > 100 µM
IC (TGI) (HOP-62): 15.8 µM
IC (TGI) (DU-145): > 100 µM
IC (TGI) (LOX IMVI): 22.4 µM
GI50 (MDA-MB435): < 0.1 pM
IC (TGI) (MALME-3M): 34.7 µM
GI50 (HCT-15; [5]): 0.427 µM
IC (TGI) (HCT-15; read-out: Log10 TGI): > 100 µM
IC (TGI) (CCRF-CEM): > 100 µM
IC (TGI) (MDA-MB231/ATCC): 14.5 µM
IC (TGI) (MCF7/ADR-RES): > 100 µM
IC (TGI) (OVCAR-3): 28.2 µM
GI50 (OVCAR-8): 0.0178 nM
GI50 (T-47D): 0.000155 µM
IC (TGI) (IGROVI): 64.6 µM
IC (TGI) (786-0): > 100 µM
concentration for cytostasis (PG 0) (MOLT-4 [2]): greater than 10^-4 M
IC (TGI) (K-562): > 100 µM
IC (TGI) (HL-60(TB)): > 29.5 µM
IC (TGI) (NCI-H322M): 34.7 µM
GI50 (MDA-N): < 0.1 pM

CCO[C@H]1O[C@@H]2O[C@@]3(C)CC[C@H]4[C@H](C)CC[C@@H]([C@H]1C)[C@@]24OO3 [arteether]
conversion into dihydroartemisinin [3]: rapidly converted

C=C1/C(=C\C=C2/CCC[C@]3(C)[C@@H]([C@H](C)CCCC(C)(C)O)CC[C@@H]23)C[C@@H](O)C[C@@H]1O [calcitriol, 1α, 25-dihydroxyvitamin D3]
viability of treated cells (PE cells): identical to control cells

C[C@@H]1CC[C@H]2[C@@H](C)C(O)O[C@@H]3O[C@@]4(C)CC[C@@H]1[C@]32OO4 (some centres unmarked) [dihydroartemisinin]
half-life in plasma [4]: less than two
